Experiments:
SCNT blastocysts = experiment: ntESC derivation from SCNT blastocysts; type: cell-based, mouse; conditions: for No. of blastocyst attached to feeder cells / No. of established ntESC lines / blastocyst attached to feeder cells (% per blast) / established ntESC lines (% per MII oocyte) / established ntESC lines (% per blast): cumulus donor cells (BDF1, female)
Description: Blastocysts were denuded by acid tyrode treatment and cultured on mitomycin treated MEF feeder cells and in DMEM supplemented with 5% FBS, 10% KnockOut serum replacement (Life Technologies #10828-028), 0.1 mM non-essential amino acids, 2 mM GlutaMAX, 50 U/ml penicillin-streptomycin, 0.1 mM 2-mercaptoethanol and 2000 U leukemia inhibitory factor (LIF, Millipore #ESG1107) at 37° C. 5% CO2. Four to five days later, outgrowths from attached embryos were dissociated with 0.25% trypsin and passaged all onto new feeder cells. On the following day, the medium was replaced with N2B27-LIF media [DMEM/F12 (Life Technologies #10565-042) supplemented with 0.1 mM non-essential amino acids, 2 mM GlutaMAX, 50 U/ml penicillin-streptomycin, 0.1 mM 2-mercaptoethanol, 0.5×N2 supplement (Life technologies #17502-048), 0.5× B27 supplement (Life technologies #17504-044), […] CHIR99021 (STEMGENT #04-0004), 0.5 μM PD0325901 (STEMGENT #04-0006) and 1000 U LIF]. Five days later, expanded cells were reseeded as established ntESC.

SCNT embryos = experiment: Preimplantation development of SCNT embryos cultured in vitro; type: cell-based, mouse; conditions: for No. of blastocyst / blastocyst (% per 1-cell): ntESC derivation experiment
From the text: C57BL/6J female mice were mated with DBA/2J males to produce B6D2F1/J (BDF1) mice. BDF1 and CD-1 (ICR) adult females were used for the collection of recipient oocytes and embryo transfer recipients, respectively. BDF1 mice were used for the collection of donor somatic cells for the analyses of development. (C57BL/6×CAST/EiJ) F1 mice were used for the collection of donor cells for RNA-seq. E13.5 embryos harboring GOF18 delta-PE (Jackson Laboratory, 004654: Tg(Pou5f1-EGFP)2Mnn, C57BL/6J background) were used for the isolation of mouse embryonic fibroblasts (MEF). All animal experiments were approved by the Institutional Animal Care and Use Committee of Harvard Medical School.
Cumulus cells were collected from adult BDF1 females through superovulation by injecting 7.5 IU of pregnant mare serum gonadotropin (PMSG; Harbor) and 7.5 IU of human chorionic gonadotropin (hCG; Millipore). Fifteen hours after the hCG injection, cumulus-oocyte complexes (COCs) were collected from the oviducts and briefly treated with Hepes-buffered potassium simplex-optimized medium (KSOM) containing 300 U/ml bovine testicular hyaluronidase (Calbiochem #385931) to obtain dissociated cumulus cells. Sertoli cells were collected from testes of 3- to 5-day-old BDF1 male mice as described (Matoba et al., 2011). Testicular masses were incubated in PBS containing 0.1 mg/ml collagenase (Life Technologies #17104-019) for 30 min at 37° C. followed by 5 min treatment with 0.25% Trypsine with 1 mM EDTA (Life Technologies #25200-056) at room temperature. After washing for four times with PBS containing 3 mg/ml bovine serum albumin, the dissociated cells were suspended in Hepes-KSOM medium.
Primary mouse embryonic fibroblast (MEF) cells were established from GOF18 delta-PE mouse embryos at 13.5 dpc. After removal of head and all organs, minced tissue from remaining corpus was dissociated in 500 μl of 0.25% Trypsine with 1 mM EDTA for 10 min at 37° C. Cell suspension was diluted with equal amount of DMEM (Life Technologies #11995-073) containing 10% FBS and Penicillin/Streptomycin (Life Technologies #15140-022) and pipetted up and down for 20 times. The cell suspension was diluted with fresh medium and plated onto 100 mm dishes and cultured at 37° C. Two days later, MEF cells were harvested and frozen. Frozen stocks of MEF cells were thawed and used for experiments after one passage.
siRNAs against mouse Suv39h1 (Life Technologies #s74607), Suv39h2 (Life Technologies #s82300) and Setdb1 (Life Technologies #s96549) were diluted in nuclease free water at 50 μM stock solutions. siRNAs were introduced to MEFs with Lipofectamine RNAi Max (Life technologies #35050-061) following manufacturer's protocol. Briefly, 1×10^5 MEF cells were seeded onto 24-well plate (day 0; see FIG. 5A). Twenty-four hours later, […] siRNAs were transfected into MEF cells using Lipofectamine RNAi Max (day 1). Twenty-four hours after the first transfection, the culture media was changed to fresh M293T media [DMEM supplemented with 10% FBS, 0.1 mM non-essential amino acids (Life technologies #11140-050), 2 mM GlutaMAX (Life technologies #35050-079), 50 U/ml penicillin-streptomycin and 0.1 mM 2-mercaptoethanol (Life technologies #21985-023)] (day 2). On day 3, MEF cells were reseeded onto 24-well plates at the density of 1×10^5 cells. Then transfection was repeated once as described above (day 4). Forty-eight hours after the second transfection (day 6), MEF cells were used for immunostaining, RT-qPCR or SCNT.
Somatic cell nuclear transfer was carried out as described previously (Matoba et al., 2011). Briefly, recipient MII oocytes were collected from superovulated adult BDF1 females by brief treatment with 300 U/ml bovine testicular hyaluronidase (Calbiochem). Isolated MII oocytes were enucleated in Hepes-buffered KSOM medium containing 7.5 μg/ml of cytochalasin B (Calbiochem #250233). […]

[1] = TSA treatment 15 nM for 8 h, water or mRNA 1800 ng/μl injected
[2] = MEF donor cells (C57BL/6, male) treated with transfection reagent alone, injected mRNA 1800 ng/μl
[3] = Sertoli donor cells (BDF1, male), injected mRNA 1800 ng/μl
[4] = cumulus donor cells (BDF1, female), TSA treatment 15 nM for 8 h, water or mRNA 1800 ng/μl injected
[5] = cumulus donor cells (BDF1, female), no TSA, injected mRNA 1800 ng/μl
[6] = cumulus donor cells (BDF1, female), no TSA, mRNA 1800 ng/μl

Kdm4d WT mRNA: in vitro transcribed full length mouse Kdm4d mRNA, encoding an H3K9me3-specific histone demethylase
efficiency of attachment or ntESC derivation per blastocyst, compared to control (in words) (SCNT blastocysts; SCNT blastocysts from cumulus donor cells): did not show any significant difference
ntESC derivation efficiency based on the total number of MII oocytes used for SCNT (in words) (SCNT blastocysts; cumulus donor cells): greatly improved
No. of blastocyst attached to feeder cells (SCNT blastocysts; [1]): 16
No. of established ntESC lines (SCNT blastocysts; [1]): 11
blastocyst attached to feeder cells (% per blast) (SCNT blastocysts; [1]): 76.2%
established ntESC lines (% per MII oocyte) (SCNT blastocysts; [1]): (44.0) %
established ntESC lines (% per blast) (SCNT blastocysts; [1]): (52.3) %
No. of blastocyst attached to feeder cells (SCNT blastocysts; no TSA, mRNA 1800 ng/μl): 13
No. of established ntESC lines (SCNT blastocysts; no TSA, mRNA 1800 ng/μl): 10
blastocyst attached to feeder cells (% per blast) (SCNT blastocysts; no TSA, mRNA 1800 ng/μl): 72.2%
established ntESC lines (% per MII oocyte) (SCNT blastocysts; no TSA, mRNA 1800 ng/μl): (50.0) %
established ntESC lines (% per blast) (SCNT blastocysts; no TSA, mRNA 1800 ng/μl): (55.6) %
% 4-cell per 2-cell ± SD (SCNT embryos; [2]): 95.4 ± 5.5 %
% blast per 2-cell ± SD (SCNT embryos; [2]): 82.0 ± 10.3 %
% cleaved per 1-cell ± SD (SCNT embryos; [2]): 86.9 ± 8.8%
% morula per 2-cell ± SD (SCNT embryos; [2]): 89.6 ± 7.9 %
developmental efficiency of SCNT embryos (in words) (SCNT embryos; Sertoli cells or C57BL/6 background MEF cells as donor cells): significantly improved the developmental efficiency
% 4-cell per 2-cell ± SD (SCNT embryos; [3]): 95.3 ± 3.6 %
% blast per 2-cell ± SD (SCNT embryos; [3]): 81.2 ± 7.5 %
% cleaved per 1-cell ± SD (SCNT embryos; [3]): 89.3 ± 8.4%
% morula per 2-cell ± SD (SCNT embryos; [3]): 91.6 ± 6.4 %
% 4-cell per 2-cell ± SD (SCNT embryos; [4]): 95.8 ± 0.0 %
% cleaved per 1-cell ± SD (SCNT embryos; [4]): 94.1 ± 0.0%
% morula per 2-cell ± SD (SCNT embryos; [4]): 93.8 ± 6.3 %
% blast per 2-cell ± SD (SCNT embryos; cumulus donor cells (BDF1, female), TSA treatment 15 nM for 8 h, water or mRNA 1800 ng/μl injected, listed as Kdm4d WT): 87.5 ± 12.5 %
% blast per 2-cell ± SD (SCNT embryos; cumulus donor cells (BDF1, female), TSA treatment 15 nM for 8 h, water or mRNA 1800 ng/μl injected, listed as Kdm4d mRNA): 87.5%
% 4-cell per 2-cell ± SD (SCNT embryos; [5]): 98.9 ± 2.3 %
% cleaved per 1-cell ± SD (SCNT embryos; [5]): 92.7 ± 6.2%
% morula per 2-cell ± SD (SCNT embryos; [5]): 96.5 ± 4.4 %
% blast per 2-cell ± SD (SCNT embryos; cumulus donor cells (BDF1, female), no TSA, injected mRNA 1800 ng/μl, 96 h culture, listed as Kdm4d): 88.6%
% blast per 2-cell ± SD (SCNT embryos; cumulus donor cells (BDF1, female), no TSA, injected mRNA 1800 ng/μl, 96 h culture, listed as Kdm4d WT): 88.6 ± 3.9 %
% blast per 2-cell ± SD (SCNT embryos; cumulus donor cells (BDF1, female), no TSA, injected mRNA 1800 ng/μl, 96 h culture, listed as wild-type Kdm4d mRNA): 88.6%
No. of blastocyst (SCNT embryos; [4]): 21
blastocyst (% per 1-cell) (SCNT embryos; [4]): 95.5%
No. of blastocyst (SCNT embryos; [6]): 18
blastocyst (% per 1-cell) (SCNT embryos; [6]): 94.7%

— patent US12644133B2, “Methods and compositions to increase somatic cell nuclear transfer (SCNT) efficiency by removing histone H3-lysine trimethylation” (The Children's Medical Center Corporation, priority 2014, dated 2026)
